Patent US20250092058A1 (priority 2018, published 2025)
Read-outs that look alike come from different tables or passages of the source.

Legend:
[1] = test system: HepG2; type: cell-based, human; conditions: Table 13; MTT; HepG2 liver cancer
[2] = test system: A549; type: cell-based, human; conditions: Table 13; MTT; A549 lung cancer
[3] = test system: HeLa; type: cell-based, human; conditions: Table 13; MTT; HeLa cervical cancer
[4] = test system: HCT116; type: cell-based, human; conditions: Table 13; MTT; HCT116 colorectal cancer
[5] = target: Top1 (Homo sapiens, UniProt P11387); type: biochemical
[6] = target: DDX5-blocked Top1 (Homo sapiens, UniProt P17844); type: biochemical; conditions: 0.05 μM; DDX5 100 nM; Top1 1 IU
Experimental: Experimental condition: Top1 was used for 1 IU; DDX5 was used in 100 nM; and 1 μg supercoiled pRB322 DNA was used.

[7] = test system: HCT116; experiment: MTT assay HCT116; type: cell-based, human
Experimental: (§1) MTT assays. […] Each experiment was performed at least in triplicate.

[8] = test system: T24; experiment: MTT assay T24; type: cell-based; conditions: Table 5 lower part; T24 bladder cancer
Experimental: (§2) MTT assays. […] Viable cells (2500 cells per well) were plated in each well in 96-well plates. After an overnight incubation, cells were treated with and without relevant drugs alone and in combination, respectively, at various concentrations and incubated for 72 hours. MTT, a colorimetric substrate, was added to a final concentration of 0.4 mg/ml to each well. Cells in 96-well plates were further incubated in a 5% CO2 incubator at 37° C. for 4 hours, and then the medium was aspirated. The MTT metabolic product formazan was solubilized by adding 200 ul of DMSO to each well. Absorbance in the relevant wells was measured at 570 nm using an Ultra Microplate Reader (Bio-Tek Instruments). Each experiment was performed at least in triplicate. IC50/EC50 values were calculated from a series of drug dose ranges for each analyzed compound, using GraphPad Prism 6 (GraphPad Software, Inc., La Jolla, CA).
(§3) The inhibition of cell growth and viability in various cancer cell types were tested using MTT assay for references.

[9] = test system: RT4; experiment: MTT assay RT4; type: cell-based; conditions: Table 5 lower part; RT4 bladder cancer
Experimental: as §2, §3

[10] = test system: H1376
Experimental: as §2, §3

[11] = test system: UMUC-3
Experimental: as §2, §3

[12] = test system: UOK151
Experimental: as §2, §3

[13] = test system: UOK262
Experimental: as §2, §3

[14] = test system: HT-3; experiment: MTT assay HT-3; type: cell-based, human; conditions: Table 7; HT-3
How it was run: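 Viability after 72 h compound exposure, alone or combined, was scored by MTT (0.4 mg/ml final, 4 h) with A570 measured on DMSO-dissolved formazan.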

[15] = test system: Y79; experiment: MTT assay Y79; type: cell-based; conditions: Table 7
Experimental: as §1

[16] = test system: Wer 127; experiment: MTT assay Wer 127; type: cell-based; conditions: Table 7
Experimental: as §1

Sequence of DDX5-blocked Top1 (P17844 whole entry): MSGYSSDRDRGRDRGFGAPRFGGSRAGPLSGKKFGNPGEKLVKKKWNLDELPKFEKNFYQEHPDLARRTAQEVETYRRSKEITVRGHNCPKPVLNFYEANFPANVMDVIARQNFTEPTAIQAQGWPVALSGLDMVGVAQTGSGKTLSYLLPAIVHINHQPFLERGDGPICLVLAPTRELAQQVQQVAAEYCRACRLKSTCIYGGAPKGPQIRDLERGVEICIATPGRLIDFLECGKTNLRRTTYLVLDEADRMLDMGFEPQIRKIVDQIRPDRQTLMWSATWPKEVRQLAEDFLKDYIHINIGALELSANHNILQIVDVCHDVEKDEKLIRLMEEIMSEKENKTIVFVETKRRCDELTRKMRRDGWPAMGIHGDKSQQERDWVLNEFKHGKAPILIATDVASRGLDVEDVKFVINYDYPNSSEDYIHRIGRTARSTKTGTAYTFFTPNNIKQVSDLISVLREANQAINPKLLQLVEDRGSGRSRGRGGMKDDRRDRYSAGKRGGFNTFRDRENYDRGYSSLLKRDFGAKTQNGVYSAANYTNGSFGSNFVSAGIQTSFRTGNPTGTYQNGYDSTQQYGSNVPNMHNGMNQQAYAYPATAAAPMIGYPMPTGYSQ
Sequence of Top1 (P11387 whole entry, species assumed): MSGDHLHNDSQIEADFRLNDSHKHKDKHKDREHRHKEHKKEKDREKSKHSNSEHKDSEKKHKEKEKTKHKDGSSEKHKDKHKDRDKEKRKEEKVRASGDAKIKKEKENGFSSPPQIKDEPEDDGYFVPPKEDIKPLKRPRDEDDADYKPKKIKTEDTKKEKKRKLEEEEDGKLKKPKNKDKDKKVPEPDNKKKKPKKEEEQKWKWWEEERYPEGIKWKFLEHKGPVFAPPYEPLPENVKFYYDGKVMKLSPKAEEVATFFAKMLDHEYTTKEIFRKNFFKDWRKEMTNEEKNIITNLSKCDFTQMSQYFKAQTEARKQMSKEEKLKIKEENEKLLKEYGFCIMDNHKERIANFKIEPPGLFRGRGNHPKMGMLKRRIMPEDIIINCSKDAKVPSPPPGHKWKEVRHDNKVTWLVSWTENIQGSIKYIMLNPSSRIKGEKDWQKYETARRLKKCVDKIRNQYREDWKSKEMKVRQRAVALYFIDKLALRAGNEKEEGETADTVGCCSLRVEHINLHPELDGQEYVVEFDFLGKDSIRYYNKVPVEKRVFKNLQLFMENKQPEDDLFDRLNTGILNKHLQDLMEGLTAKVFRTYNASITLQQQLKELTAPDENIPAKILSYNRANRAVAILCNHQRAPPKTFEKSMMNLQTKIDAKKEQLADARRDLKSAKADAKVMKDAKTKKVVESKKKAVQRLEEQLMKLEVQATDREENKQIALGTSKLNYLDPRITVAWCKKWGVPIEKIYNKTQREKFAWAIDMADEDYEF

With CCc1c2c(nc3ccc(O)cc13)-c1cc3c(c(=O)n1C2)COC(=O)[C@]3(O)CC [SN38, reference compound] as the compound, how does the IC50 [1] read?
The IC50 was 268.4 ± 0.6 nM.

And the IC50 [2]?
The IC50 was 475 ± 9 nM.

What about the IC50 [3] of the same compound?
The IC50 was 234 ± 5.2 nM.

What about the IC50 [4] of the same compound?
The IC50 was 366.9 ± 3.3 nM.

What about the “concentrations blocking Top1 nicking SC DNA activity” value [5] of the same compound?
Its value is “could only be blocked by 5 and 50 μM”.

What about the “unblocking of DDX5-blocked Top1 activity” value [6] of the same compound?
The value was “cannot”.

What about the IC50/EC50 ([7]; Table 7) of the same compound?
The IC50/EC50 was 619.8 nM.

What about the IC50/EC50 ([7]; Table 8) of the same compound?
The IC50/EC50 was 619.8 nM.

And the IC50/EC50 [8]?
The IC50/EC50 was 2.32 nM.

And the IC50/EC50 [9]?
Its IC50/EC50 is 17.6 nM.

What about the IC50/EC50 ([10]; Table 5 lower part, H1376 bladder cancer) of the same compound?
The IC50/EC50 was over 500 nM.

And the IC50/EC50 ([10]; Table 8, H1376)?
The IC50/EC50 was over 500 nM.

And the IC50/EC50 ([11]; Table 5 lower part, UMUC-3 bladder cancer)?
The IC50/EC50 was 8.2 nM.

What about the IC50/EC50 ([11]; Table 8, UMUC-3) of the same compound?
Its IC50/EC50 is 8.2 nM.

What about the IC50/EC50 ([12]; Table 5 lower part, UOK151 kidney cancer) of the same compound?
Its IC50/EC50 is over 500 nM.

And the IC50/EC50 ([12]; Table 8, UOK151)?
Its IC50/EC50 is over 500 nM.

What about the IC50/EC50 ([12]; Table 10, UOK151) of the same compound?
Its IC50/EC50 is over 500 nM.

What about the IC50/EC50 ([13]; Table 5 lower part, UOK262 kidney cancer) of the same compound?
The IC50/EC50 was 33.8 nM.

What about the IC50/EC50 ([13]; Table 8, UOK262) of the same compound?
The IC50/EC50 was 33.8 nM.

What about the IC50/EC50 ([13]; Table 10, UOK262) of the same compound?
The IC50/EC50 was 33.8 nM.

What about the IC50/EC50 [14] of the same compound?
The IC50/EC50 was 18 nM.

What about the IC50/EC50 [15] of the same compound?
The IC50/EC50 was 5.25 nM.

What about the IC50/EC50 [16] of the same compound?
Its IC50/EC50 is 6.85 nM.
